Source: patent US20260218267A1, “METHODS AND COMPOSITIONS FOR PRODUCTION AND PURIFICATION OF PEPTIDES” (priority 2023, published 2026)

B1: Onconase: RNAse first identified in Rana pipiens, about 104 amino acids, used as insoluble carrier polypeptide (protein, UniProt P22069 1-104, looked up)
Protein P-30: QDWLTFQKKHITNTRDVDCDNIMSTNLFHCKDKNTFIYSRPEPVKAICKGIIASKNVLTTSEFYLSDCNVTSRPCKYKLKKSTNKFCVTCENQAPVHFVGVGSC

Legend:
[1] = tested on: grey mold (Botrytis cinerea); assay: Disease control assay, tomato plants infected with grey mold; format: in vivo; conditions: peptide sprayed 24 h post infection at 0.1 g/l or 0.3 g/l, FIG. 17
Protocol: The peptides were sprayed 24 h post infection at concentration of 0.1 g/l or 0.3 g/l.
Peptide production was performed using the chaotropic agent-free protocol described in Example 8.
A synthetic peptide (MP18913), which mimics the concatemeric sequence with an N-terminus proline (P) and C-terminus aspartate (D), was chemically synthetized and used as a control treatment.
Peptide activity was assessed by a disease control assay using tomato plants infected with grey mold (Botrytis cinerea). Peptides were sprayed 24 h post infection at concentration of 0.1 g/l or 0.3 g/l. Disease control percentage was determined based on convex hull recovery, with a total of 7 plants examined (n=7) upon infection with Botrytis spores at 250 spores/ml.

[2] = general statement on onconase; cited from earlier work

| Molecule | Control of tomato grey mold infection, comparison in words [1] | pI [2] |
| --- | --- | --- |
| MP18913 (PKKEEMSYMKRD) | as effective, or slightly more effective, than the chemically synthetized version | – |
| B1 | – | higher than 9.5 |
